Experimental data published in PMC9232612, “A phase 1b randomised controlled trial of a glucagon-like peptide-1 and glucagon receptor dual agonist IBI362 (LY3305677) in Chinese patients with type 2 diabetes” (Nature Communications, 2022).
Several values for one entry are separate records, joined by “and”; a condition that tells them apart may be missing. Identical values can stand only once.

Tests used:
Type in all cases: in vivo, human
[1] = Body weight; details: for Percent change from baseline to week 12 in body weight, single patients: each line a single patient; for Percent change from baseline in body weight, LS mean / Percent change from baseline in body weight, LS mean (SE): n=8; for Percent change from baseline in body weight, LS mean / Percent change from baseline in body weight, LS mean (SE) / Body weight (percent CFB): ETD versus placebo, LS mean (90% CI): MMRM; for Percent change from baseline in body weight, LS mean (SE) / Body weight (percent CFB): ETD versus placebo, LS mean (90% CI): week 12
Method: Exploratory outcomes included change from baseline in body weight, waist circumference, body-mass index (BMI) and change in homeostatic model assessment of β-cell function (HOMA-β) and insulin resistance (HOMA-IR).
(§1) The analyses for change from baseline in HbA1c, FPG, post-MTT glucose AUC0–4 h and body weight were performed using the mixed-effect model for repeated measures (MMRM) with least-squares means and standard error provided. The MMRM included the corresponding baseline value, treatment, visit and treatment-by-visit as fixed effects and patient as a random effect. Mean change or mean percent change from baseline were analysed using a restricted maximum likelihood (REML)‐based repeated measures approach in combination with the Newton Raphson Algorithm. The fix effect of visit was fitted as a repeated effect and an unstructured covariance matrix was used. In case of non-converge, matrix like Variance Components and Compound Symmetry will be tested in a subsequent order until model‐convergence is achieved. The Kenward-Roger degree of freedom was used in estimating fixed effects. No missing data imputation was conducted. For HbA1c, FPG and body weight, point estimate of treatment difference versus placebo and 90% CI were provided for each IBI362 dose group and the dulaglutide group, with nominal p values.

[2] = test system: Chinese patients with T2D; test: Change from baseline in heart rate, standard 12-lead electrocardiogram
From the text: (§2) Primary outcomes of the study were the safety and tolerability of IBI362. Safety assessment included adverse events, physical examinations, laboratory tests (including lipase, amylase and calcitonin level measures), vital signs and 12-lead electrocardiogram. Adverse events were categorized according to the Medical Dictionary for Regulatory Activities system organ classes (SOCs) and preferred terms. Treatment-emergent adverse events (TEAEs) were monitored from the time of informed consent to the safety follow-up period. The severity of TEAEs (mild, moderate or severe) and the association between an event and the study drug were assessed by investigators based on pre-specified criteria.
CFB in heart rate (beats/min),
Fig. S1: Change from baseline in heart rate over time.
Data are from standard 12-lead electrocardiogram, measured at 1 hour before each dose in the morning from week 0 to week 11, and 168 hours after the last dose (week 12). Data are plotted as means +/- SD. CFB = change from baseline; SD = standard deviation.Source data are provided as […]
(1 picture or pasted object on this page, not shown here)

[3] = test system: Chinese patients with T2D; test: Alanine aminotransferase and aspartate aminotransferase levels
From the text: as §2
CFB in ALT (U/L), mean (SD)
CFB in AST (U/L), mean (SD)
Fig. S2: Change from baseline in ALT and AST levels over time.
a. CFB in ALT levels over time. b. CFB in AST levels over time. Data are plotted as means +/- SD.
ALT = alanine aminotransferase; AST = aspartate aminotransferase; CFB = change from baseline;
SD = standard deviation. Source data are provided as a Source Data file. […]

[4] = test system: Chinese patients with T2D; test: Glycated haemoglobin A1c (HbA1c); details: n=8
Method: HbA1c (2200101, Bio-Rad, USA), blood glucose (05168791190, Roche Diagnostics, Germany), insulin (12017547122, Roche Diagnostics, Germany), C peptide (03184897190, Roche Diagnostics, Germany), total GLP-1 (GLP-1 [7–36] amide and its metabolite, GLP-1 [9–36] amide, 10-1278-01, Mercodia AB, Sweden) and OXM (AL-139, AnshLabs, USA) tests were performed according to the manufactures’ instruction manuals in a central laboratory (KingMed Diagnostics, Guangzhou, China). HbA1c was measured using a Bio-rad D-100 Haemoglobin Testing System (Bio-rad). Blood glucose was measured using a Roche Cobas c702 analyser (Roche Diagnostics). Insulin and C peptide were measured using a Roche […] analyser (Roche Diagnostics). GLP-1 and OXM were measured using a Tecan Infinite M Plex microplate reader (TECAN).
Standard non-compartmental pharmacokinetics methods were used to analyze IBI362 plasma concentration data using Pkanalix 2020R1 (Lixoft, Antony, France). Secondary efficacy outcomes included change from baseline to week 12 in HbA1c, fasting plasma glucose (FPG), fasting insulin levels, change from baseline to week 12 in post-mixed-meal tolerance test (post-MTT) glucose, insulin, C peptide, GLP-1 and OXM levels, as well as seven-point self-measured blood glucose (SMBG) profile.
as §1

In the case of `CC(C)C[C@H](NC(=O)[C@H](CC(C)C)NC(=O)[C@H](Cc1c[nH]c2ccccc12)NC(=O)[C@H](CCC(=O)O)NC(=O)[C@@H](NC(=O)[C@H](Cc1ccccc1)NC(=O)[C@H](CCC(=O)O)NC(=O)[C@H](CCCCNC(=O)COCCOCCNC(=O)COCCOCCNC(=O)CC[C@H](NC(=O)CCCCCCCCCCCCCCCCCCC(=O)O)C(=O)O)NC(=O)[C@H](C)NC(=O)[C@H](CCCCN)NC(=O)[C@H](CCCCN)NC(=O)[C@H](CCC(=O)O)NC(=O)[C@H](CC(=O)O)NC(=O)[C@H](CC(C)C)NC(=O)[C@H](Cc1ccc(O)cc1)NC(=O)[C@H](CCCCN)NC(=O)[C@H](CO)NC(=O)[C@H](Cc1ccc(O)cc1)NC(=O)[C@H](CC(=O)O)NC(=O)[C@H](CO)NC(=O)[C@@H](NC(=O)[C@H](Cc1ccccc1)NC(=O)[C@@H](NC(=O)CNC(=O)[C@H](CCC(N)=O)NC(=O)C(C)(C)NC(=O)[C@@H](N)Cc1c[nH]cn1)[C@@H](C)O)[C@@H](C)O)C(C)C)C(=O)N[C@@H](CCC(=O)O)C(=O)NCC(=O)NCC(=O)N1CCC[C@H]1C(=O)N[C@@H](CO)C(=O)N[C@@H](CO)C(=O)NCC(N)=O` [IBI362], the “body weight reductions from baseline to week 12 (up to)” value ([1]; across IBI362 cohorts) is reported as “up to 5.4%”, the “Percent change from baseline to week 12 in body weight, single patients” value ([1]; 3.0 mg cohort) is reported as -0.9% and -2.2% and 0.6% and -1.0% and 0.0% and -5.1% and the “Percent change from baseline to week 12 in body weight, single patients” value ([1]; 4.5 mg cohort) is reported as -15.9% and -3.7% and 1.3% and -1.6% and -6.0%. For the same compound, the “Percent change from baseline in body weight, LS mean” value ([1]; week 4, 3.0 mg cohort) was 0.1%, the “Percent change from baseline in body weight, LS mean” value ([1]; week 4, 4.5 mg cohort) was -1.1% and the “Percent change from baseline in body weight, LS mean” value ([1]; week 4, 6.0 mg cohort) was -1.7%. For the same compound, the “Percent change from baseline in body weight, LS mean” value ([1]; week 8, 3.0 mg cohort) was -0.2%, the “Percent change from baseline in body weight, LS mean” value ([1]; week 8, 4.5 mg cohort) was -2.1% and the “Percent change from baseline in body weight, LS mean” value ([1]; week 8, 6.0 mg cohort) was -3.3%. For the same compound, the “Percent change from baseline in body weight, LS mean (SE)” value (shortened to “Percent change from baseline … (SE)”) ([1]; 3.0 mg cohort) was −0.9 (1.3) % and −0.9%, the “Body weight (percent CFB): ETD versus placebo, LS mean (90% CI)” value (“Body weight (percent CFB) … (90% CI)” for short) ([1]; 3.0 mg cohort) was 0.1 ( −2.6, 2.8) % and the “Percent change from baseline … (SE)” value ([1]; 4.5 mg cohort) was -5.0%. The “Body weight (percent CFB) … (90% CI)” value ([1]; 4.5 mg cohort) was −4.0 (−6.7, −1.2) % and −4.0%, the “Percent change from baseline … (SE)” value ([1]; 6.0 mg cohort) was -5.4% and the “Body weight (percent CFB) … (90% CI)” value ([1]; 6.0 mg cohort) was −4.4 (−7.0, −1.7) % and −4.4%. The “heart rate, mean change from baseline (bound)” value ([2]; 3.0 mg cohort) was under 10 beats per minute, the “heart rate, mean change from baseline (bound)” value ([2]; 6.0 mg cohort) was under 15 beats per minute and the “heart rate increase (up to)” value ([2]; patients receiving IBI362) was 10-15 beats per minute. The “Change from baseline in ALT, mean” value ([3]; week 4, 3.0 mg cohort) was 3.76 U/L, the “Change from baseline in AST, mean” value ([3]; week 4, 3.0 mg cohort) was 1.13 U/L and the “Change from baseline in ALT, mean” value ([3]; week 4, 4.5 mg cohort) was -3.50 U/L. For the same compound, the “Change from baseline in AST, mean” value ([3]; week 4, 4.5 mg cohort) was -2.03 U/L, the “Change from baseline in ALT, mean” value ([3]; week 4, 6.0 mg cohort) was -7.38 U/L and the “Change from baseline in AST, mean” value ([3]; week 4, 6.0 mg cohort) was -2.56 U/L. The “Change from baseline in ALT, mean” value ([3]; week 8, 3.0 mg cohort) was -6.34 U/L, the “Change from baseline in AST, mean” value ([3]; week 8, 3.0 mg cohort) was -1.20 U/L and the “Change from baseline in ALT, mean” value ([3]; week 8, 4.5 mg cohort) was -7.66 U/L. For the same compound, the “Change from baseline in AST, mean” value ([3]; week 8, 4.5 mg cohort) was -1.26 U/L, the “Change from baseline in ALT, mean” value ([3]; week 8, 6.0 mg cohort) was -8.50 U/L and the “Change from baseline in AST, mean” value ([3]; week 8, 6.0 mg cohort) was -3.36 U/L. The “Change from baseline in ALT, mean” value ([3]; week 12, 3.0 mg cohort) was -6.34 U/L, the “Change from baseline in AST, mean” value ([3]; week 12, 3.0 mg cohort) was -2.49 U/L and the “Change from baseline in ALT, mean” value ([3]; week 12, 4.5 mg cohort) was -10.66 U/L. For the same compound, the “Change from baseline in AST, mean” value ([3]; week 12, 4.5 mg cohort) was -2.82 U/L, the “Change from baseline in ALT, mean” value ([3]; week 12, 6.0 mg cohort) was -8.38 U/L and the “Change from baseline in AST, mean” value ([3]; week 12, 6.0 mg cohort) was -4.65 U/L. For the same compound, the “Percent of patients with change from baseline to week 12 in HbA1c <1.0%” value (shortened to “Percent of patients with change … in HbA1c <1.0%”) ([4]; 3.0 mg cohort) was 0.0%, the “Percent of patients with change from baseline to week 12 in HbA1c ≥1.0% and <1.5%” value ([4]; 3.0 mg cohort) was 37.5% and the “Percent of patients with change from baseline to week 12 in HbA1c ≥1.5% and <2.0%” value ([4]; 3.0 mg cohort) was 25.0%. The “Percent of patients with change from baseline to week 12 in HbA1c ≥2.0%” value ([4]; 3.0 mg cohort) was 25.0%, the “Percent of patients with change … in HbA1c <1.0%” value ([4]; 4.5 mg cohort) was 0.0% and the “Percent of patients with change from baseline to week 12 in HbA1c ≥1.0% and <1.5%” value ([4]; 4.5 mg cohort) was 12.5%. The “Percent of patients with change from baseline to week 12 in HbA1c ≥1.5% and <2.0%” value ([4]; 4.5 mg cohort) was 25.0%, the “Percent of patients with change from baseline to week 12 in HbA1c ≥2.0%” value ([4]; 4.5 mg cohort) was 37.5% and the “Percent of patients with change … in HbA1c <1.0%” value ([4]; 6.0 mg cohort) was 25.0%.
